Patent US20250375457A1, “TOPICAL PHARMACEUTICAL COMPOSITIONS AND USES THEREOF” (Shenzhen Pharmacin Co., Ltd., priority 2022, published 2025)
Read-outs that look alike come from different tables or passages of the source.

How the values were obtained:
[1] = Equilibrium solubility of midostaurin in different solvents (HPLC); type: physicochemical; settings: thermodynamic from solid, 25° C., 24-72 hours
Protocol: Many different solvents were evaluated for their compatibility with midostaurin. […] Solubility was measured by HPLC.

[2] = Solubility of midostaurin in solubilizer-water mixture systems; type: physicochemical; settings: solubilizer-water mixtures, aqueous with cosolvent or surfactant or cyclodextrin, thermodynamic from solid, Transcutol, Labrasol, Tween 80, Cremphor EL, Kolliphor HS15 at 10%, 20%, 30% v/v in water, 25° C.
Protocol: The solubility of midostaurin in a system with water and a solubilizer combined at a certain ratio was also evaluated. The method involves adding excess amorphous midostaurin powders into various concentrations of solubilizer and water systems and mixed for 24 hours at 25° C. with 600 rpm to ensure equilibrium was achieved. Solubilizers selected for this study include Transcutol, Labrasol, Tween 80, Cremphor EL, and Kolliphor HS15. Each solubilizer is mixed with water at 10%, 20%, and 30% v/v, respectively, to form a system where amorphous midostaurin power was dissolved.

[3] = Excipient compatibility study (impurities by HPLC); type: physicochemical; settings: 1:200 (w/w), 60° C. for 10 days
Protocol: Midostaurin was mixed with many excipients used in topical formulations at 1:200 (w/w) and was placed at 60° C. for 10 days before testing.

[4] = cited from earlier work
British guinea pigs = type: in vivo; settings: single skin application 0.2 mL/site, irradiation 10±1 J/cm^2, observed to 72 hours
Protocol: Phototoxicity of midostaurin cream was tested using British guinea pigs as a model. Male guinea pigs were randomly divided into groups and given a single skin application of physiological saline (negative control), 8-MOP (positive control), 1.0% midostaurin cream, and midostaurin cream blank matrix. The dose given is 0.2 mL/site and the administration site was fixed after the treatment was applied. After 0.5 hours, the administration site was irradiated by the sunlight simulator of Dr. Hönle AG (SOL500) to reach the specified irradiation amount of 10±1 J/cm^2. The irradiance was measured with a UV radiometer equipped with type UVA FO from Dr. Hönle AG. The first day of dosing is designated as day 1 of the trial (Day 1). After the irradiation, the skin irritation of the administration site was observed and scored at 1+0.5 hours, 24 hours, 48 hours and 72 hours, respectively.

| solubility ([1]; oil or lipid, corn oil, read-out: solubility in corn oil) [µg/mL] | solubility ([1]; oil or lipid, soybean oil, read-out: solubility in soybean oil) [µg/mL] | solubility ([1]; organic solvent or mixture, Labrasol, read-out: solubility in Labrasol) [µg/mL] | solubility ([1]; organic solvent or mixture, Tween 80, read-out: solubility in Tween 80) [µg/mL] | solubility ([1]; organic solvent or mixture, ethanol, read-out: solubility in ethanol) [µg/mL] | solubility ([1]; organic solvent or mixture, glycerol, read-out: solubility in glycerol) [µg/mL] | solubility at 24 h [2] [µg/mL] | Impurity results (%) RRT 0.91 [3] [%] | Impurity results (%) RRT 0.93 [3] [%] | Impurity results (%) RRT 0.97 [3] [%] | Impurity results (%) RRT 1.00 (midostaurin assay content) [3] [%] | Impurity results (%) RRT 1.10 [3] [%] | Structure (SMILES) | log P [4] | phototoxicity (edema and erythema at administration site after UV irradiation) (British guinea pigs) |
| --- | --- | --- | --- | --- | --- | --- | --- | --- | --- | --- | --- | --- | --- | --- |
| < 10000 | < 10000 | > 50000 | > 50000 | < 10000 | < 10000 | < 10000 | 0.07 | 0.11 | 0.12 | 99.64 | 0.06 | CO[C@@H]1[C@H](N(C)C(=O)c2ccccc2)C[C@H]2O[C@]1(C)n1c3ccccc3c3c4c(c5c6ccccc6n2c5c31)C(=O)NC4 [Midostaurin, midostaurin] | 5.27 | – |
| – | – | – | – | – | – | – | – | – | – | – | – | COc1c2occc2cc2ccc(=O)oc12 [Lot 8-MOP] | – | Edema and erythema |
| – | – | – | – | – | – | – | – | – | – | – | – | Oc1ccc(O)cc1 [Hydroquinone, hydroquinone] | 1.09 | – |
